Positions count from the first letter of the chain named.
Columns and labels:
D112N-CXCR3 = target: T1, D112N-CXCR3 (Homo sapiens, UniProt P49682, D112N); test: Chemotaxis assay, L1.2 transfectants migrating to CXCL11; assay type: cell-based; details: 10 nM CXCL11, read-out: IC50 for inhibition of migration
T1 construct: expressed in transfected cells; host or cells: murine pre-B cell line L1.2, transient transfection
T1 sequence (P49682 1-368 D112N): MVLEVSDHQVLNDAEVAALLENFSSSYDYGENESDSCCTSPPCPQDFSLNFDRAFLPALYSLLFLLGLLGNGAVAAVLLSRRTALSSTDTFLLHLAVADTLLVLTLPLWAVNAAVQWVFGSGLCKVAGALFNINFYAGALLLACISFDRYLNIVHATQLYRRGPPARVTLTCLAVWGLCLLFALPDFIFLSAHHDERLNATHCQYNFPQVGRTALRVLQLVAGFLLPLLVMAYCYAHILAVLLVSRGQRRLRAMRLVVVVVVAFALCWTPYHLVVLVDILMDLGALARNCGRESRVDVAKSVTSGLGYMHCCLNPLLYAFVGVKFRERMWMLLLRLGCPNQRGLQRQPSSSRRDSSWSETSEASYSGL

WT CXCR3 = target: T2, WT CXCR3 (Homo sapiens, UniProt P49682); test: Whole-cell 125I-CXCL11 binding assay, L1.2 transfectants; details: WT CXCR3 transfectants (Figure 1); read-out: IC50 for displacement of 125I-CXCL11
T2 construct: expressed in transfected cells; host or cells: murine pre-B cell line L1.2, transient transfection by electroporation
T2 sequence (P49682 1-368): T1 sequence (P49682 1-368 D112N) with N112D

CXCR3 Y60A = target: T3, CXCR3 Y60A (Homo sapiens, UniProt P49682, Y60A); test: as above
T3 construct: expressed in transfected cells; host or cells: murine pre-B cell line L1.2, transient transfection
T3 sequence (P49682 1-368 Y60A): T1 sequence (P49682 1-368 D112N) with Y60A, N112D

CXCR3 H202A (ECL2) = target: T4, CXCR3 H202A (ECL2) (Homo sapiens, UniProt P49682, H202A); test: as above; details: 0.1 nM 125I-CXCL11, read-out: IC50 ligand binding (mean ± SEM)
T4 construct: expressed in transfected cells; host or cells: murine pre-B cell line L1.2, transient transfection
T4 sequence (P49682 1-368 H202A): T1 sequence (P49682 1-368 D112N) with N112D, H202A

CXCR3 Y205A = target: T5, CXCR3 Y205A (Homo sapiens, UniProt P49682, Y205A); test: Chemotaxis assay, L1.2 transfectants migrating to CXCL11; assay type: cell-based
T5 construct: expressed in transfected cells; host or cells: murine pre-B cell line L1.2, transient transfection
T5 sequence (P49682 1-368 Y205A): T1 sequence (P49682 1-368 D112N) with N112D, Y205A
Experimental: A previously described pcDNA3 plasmid containing human wild type (WT) CXCR3 cDNA with an HA epitope tag encoded at the N terminus (Meiser et al., [2008]) was used as a template for the generation of point mutants by PCR using the QuikChange II site-directed mutagenesis kit (Stratagene, Amsterdam, the Netherlands). All constructs were verified by DNA sequencing (Eurofins MWG Operon, Ebersberg, Germany) before use. L1.2 cells were transiently transfected by electroporation with 1 μg of vector DNA/10^6 cells at 330V, 975μF and incubated overnight in medium supplemented with 10 mM of sodium butyrate to enhance gene expression.
Assays of chemotactic responsiveness were carried out as previously described (Vaidehi et al., [2009]) using 96-well ChemoTx® plates with 5 μm pores (Neuroprobe, Gaithersburg, MD, USA). Migrating cells were detected by the use of CellTiter Glo® Dye (Promega, Southampton, UK) and resulting luminescence measured using a TopCount scintillation counter (PerkinElmer, Waltham, MA, USA). Basal migration of cells to buffer alone was subtracted from the resulting data, with individual results expressed as a percentage of the total cells applied to the filter. In all experiments, each data point was assayed in duplicate. In every experiment, cells transiently expressing WT CXCR3 were used as a positive control.

Row | Compound | IC50 (D112N-CXCR3) [nM] | IC50 (WT CXCR3) [µM] | reduction in IC50 value, ligand binding (CXCR3 Y60A; Y60A relative to WT) | IC50 (CXCR3 Y60A; Y60A, 0.1 nM 125I-CXCL11, read-out: IC50 ligand binding (mean ± SEM)) [µM] | IC50 (CXCR3 H202A (ECL2)) [µM] | % of WT chemotaxis to 30 nM CXCL11 (mean ± SEM) (CXCR3 Y205A) [%]
1 | Cc1ccc(-c2ccc3c(c2)C=C(C(=O)Nc2ccc(C[N+](C)(C)C4CCOCC4)cc2)CCC3)cc1.[Cl-] [TAK-779, N,N-dimethyl-N-[4-[[[2-(4-methylphenyl)-6,7-dihydro-5H-benzocyclohepten-8-yl]-carbonyl]amino]benzyl] tetrahydro-2H-pyran-4-aminium chloride] | 1340 | 15.6 | twofold | 14 ± 7.07 | 25.3 ± 10.2 | –
2 | CXCL11: recombinant human chemokine, CXCR3 agonist, purchased from PeproTech | – | – | – | – | – | 35.5 ± 21.5
